In article PMC8305652, “Copper(II) Complexes Containing Natural Flavonoid Pomiferin Show Considerable In Vitro Cytotoxicity and Anti-inflammatory Effects” (International Journal of Molecular Sciences, 2021):

What was measured:
[1] = tested on: breast adenocarcinoma (MCF-7); assay: in vitro cytotoxicity, MTT assay; type: cell-based, human; conditions: mean ± SD, at least three independent experiments
Description: (§1) The testing was performed on the following human cancer cell lines: breast adenocarcinoma (MCF-7), osteosarcoma (HOS), lung adenocarcinoma (A549), prostate adenocarcinoma (PC-3), ovarian carcinoma (A2780), cisplatin-resistant ovarian carcinoma (A2780R) and colorectal adenocarcinoma (Caco-2) obtained from ATCC collection of cell lines and cultivated according to producer’s instructions.

[2] = tested on: cisplatin-resistant ovarian carcinoma (A2780R); assay: in vitro cytotoxicity, MTT assay; type: cell-based, human; conditions: mean ± SD, at least three independent experiments
Description: as §1

[3] = tested on: lung adenocarcinoma (A549); assay: in vitro cytotoxicity, MTT assay; type: cell-based, human; conditions: mean ± SD, at least three independent experiments
Description: as §1

[4] = tested on: ovarian carcinoma (A2780); assay: in vitro cytotoxicity, MTT assay; type: cell-based, human; conditions: mean ± SD, at least three independent experiments
Description: as §1

[5] = tested on: prostate adenocarcinoma (PC-3); assay: in vitro cytotoxicity, MTT assay; type: cell-based, human; conditions: mean ± SD, at least three independent experiments
Description: as §1

osteosarcoma (HOS) = assay: in vitro cytotoxicity, MTT assay; type: cell-based, human; conditions: mean ± SD, at least three independent experiments
[6] = tested on: colorectal adenocarcinoma (Caco-2); assay: in vitro cytotoxicity, MTT assay; type: cell-based, human; conditions: mean ± SD, at least three independent experiments
[7] = tested on: THP-1 human monocytic leukemia cell line; assay: relative cell viability, WST-1; type: cell-based; conditions: serum-free medium, 24 h, six independent experiments
Description: The THP-1 human monocytic leukemia cell line was purchased from the European Collection of Cell Cultures (ECACC, Salisbury, UK). Cells were cultured in an RPMI 1640 medium containing stabilized 2 mM L-glutamine (Biosera, Nuaille, France) supplemented with the mixture of antibiotics [100 U/mL penicillin and […] (Biosera, Nuaille, France)], and 10% foetal bovine serum (FBS) (HyClone, Marlborough, MA, USA). The cells were kept in an incubator at 37 °C in an atmosphere of air containing 5% CO2 and 100% humidity.
The relative cell viability of floating monocytes THP-1 were determined after 24 h incubation in a serum-free medium with compounds 1–5 dissolved in N,N-dimethylformamide (DMF) at increasing concentrations (20–0.125 µM) by the cell proliferation reagent WST-1 (Roche, Basel, Switzerland) according to the manufacturer’s manual, as we described previously. The IC50 values were calculated from resultant viability curves by four-parameter logistic (4PL) analysis.

[8] = tested on: primary culture of human hepatocytes (Hep); assay: toxicity against primary culture of human hepatocytes; type: cell-based; conditions: tested range 0.1–100 μM
[9] = tested on: NF-κB/AP-1 in THP-1-XBlue-MD2-CD14 cells; assay: LPS-stimulated NF-κB/AP-1 activity, SEAP reporter; type: cell-based, human; conditions: complexes applied at 200 nM and 50 nM, 1 h pre-treatment, read 24 h after LPS
Description: The activity of transcription factors NF-κB/AP-1 was evaluated using the THP-1-XBlue^TM-MD2-CD14 cell line [obtained from Invivogen (San Diego, CA, USA)], expressing an NF-κB/AP-1-inducible secreted embryonic alkaline phosphatase (SEAP) reporter gene, as was described previously. The complexes 1–5 were applied to the cells at the concentrations of 200 nM and 50 nM, pomiferin (at 200 nM), and a reference drug prednisone at 1 μM, respectively. Lipopolysaccharide (LPS) from E. coli 0111:B4 (Sigma-Aldrich) dissolved in PBS was used to trigger an inflammation-like reaction. The activity of the SEAP was determined by Quanti-Blue^TM reagent (Invivogen, San Diego, CA, USA) according to the manufacturer’s instructions 24 h after lipopolysaccharide stimulation. The activity of NF-κB/AP-1 was determined spectrophotometrically using the FLUOstar Omega microplate reader (BMG Labtech, Ortenberg, Germany) at 655 nm and compared with that of the vehicle.

THP-1 cells = assay: intracellular production of reactive oxygen species, DCFH2-DA; type: cell-based, human; conditions: THP-1, 200 nM, 23.5 h; pyocyanin 100 μM as radical-forming control
Description: THP-1 cells were used for the determination of the potential of tested compounds to initiate the intracellular ROS production, as was described previously with some minor modifications. Cells in serum-free RPMI 1640 medium without phenol red were seeded into black 96-well plates (5 × 10^4 cells/100 µL/well). After 2 h of incubation, the cells were treated with copper(II) complexes 1–5 at a concentration of 200 nM, and pyocyanin at a final concentration of 100 μM was added into control group to trigger production of reactive oxygen species (ROS), respectively. After the incubation at 37 °C for either 1.5 h or 23.5 h, dichlorofluorescin diacetate (DCFH2-DA) (5 μg/mL) was added and cells were kept under the same conditions hereafter. Thirty minutes later, fluorometric measurement of the fluorescent product DCF was conducted using a Tecan Infinite F200 microplate reader (Tecan, Männedorf, Switzerland) with λ(ex./em.) = 485/520 nm.

pUC19 plasmid DNA = assay: nuclease-like activity, plasmid DNA cleavage; type: biochemical
[10] = tested on: caspase 3 (Casp-3) in THP-1 cells; assay: Western blotting of apoptosis-related proteins; type: cell-based, human; conditions: THP-1, complexes 4 µM, 24 h, Western blot; for proteolytically activated Casp-3 (verified by cleaved PARP-1): cisplatin 10 µM
Description: In addition to the above-mentioned methods, the Western blotting method was used to shed light on the mechanisms associated with caspase 3 activation in the THP-1 cells. Two and a half milliliters of floating THP-1 monocytes resuspended in a serum-free RPMI 1640 medium were seeded into 6-well plates at the concentration of 10^6 cells/mL. Two hours later, complexes 3 and 5 were added at the concentration level of 4 µM. After 24 h incubation, the cells were collected by centrifugation (3000 g/5 min/4 °C), washed by cold PBS and resuspended in an ice-cold lysis buffer (50 mM Tris-HCl pH 7.5, 1 mM EGTA, 1 mM EDTA, 1 mM sodium orthovanadate, 50 mM sodium fluoride, 5 mM sodium pyrophosphate, 270 mM sucrose) with Roche cOmplete protease inhibitors (Roche Diagnostics, Basel, Switzerland). The cell lysates were centrifuged at 3000 g/5 min/4 °C and supernatants were mixed with a 5x Laemmli buffer [containing 250 mM Tris-HCl pH 6.8, 10% (w/v) SDS, 30% (v/v) glycerol, 5% (v/v) β-mercaptoethanol, 0.04% (w/v) bromphenol blue] and incubated at 70 °C for 5 min. […] The membranes were incubated at 4 °C for 16 h with a primary anti-cleaved caspase 3 (p17) antibody at the dilution 1:1000 (Cell Signaling, Danvers, MA, USA; products No. 9664), and an Apoptosis WB Cocktail (Abcam, Cambridge, UK; product No. ab136812) at the dilution recommended by the provider to detect β-actin, cleaved poly-(ADP-ribose) polymerase (PARP) and pro-caspase 3. After washing in a TBST buffer, the secondary anti-rabbit IgG antibody (Sigma-Aldrich, product No. A0545) was diluted 1:2500 and applied to the membranes, which were then incubated for 1 h at the laboratory temperature (~22 °C). The amount of bound secondary antibody was determined using an ECL reagent (Bio-Rad, Hercules, CA, USA). Chemiluminescence was detected using a Syngene PXi4 chemiluminescence imaging system (Cambridge, UK).

518A2 melanoma cells = tested on: 518A2 melanoma cells; parameters: method as in PMID 23973682; conditions: 72 h incubation; cited from earlier work
[11] = tested on: Panc-1 pancreas carcinoma cells; parameters: method as in PMID 27936296; conditions: 72 h incubation; cited from earlier work
[12] = tested on: MCF-7/Topo breast adenocarcinoma cells; parameters: method as in PMID 27936296; conditions: 72 h incubation; cited from earlier work
[13] = tested on: KB-V1/Vbl cervix carcinoma cells; parameters: method as in PMID 27936296; conditions: 72 h incubation; cited from earlier work
DLD-1 colon carcinoma = tested on: DLD-1 colon carcinoma; parameters: method as in PMID 27936296; conditions: 72 h incubation; cited from earlier work
U-87 MG glioblastoma = tested on: U-87 MG glioblastoma; parameters: method as in PMID 27936296; conditions: 72 h incubation; cited from earlier work
[14] = tested on: Ea.Hy 926 endothelial hybrid cells; parameters: method as in PMID 27936296; conditions: read-out: IC50 Ea.Hy 926 healthy endothelial hybrid cells; cited from earlier work
A2780 cell line = tested on: A2780 cell line; parameters: method as in PMID 32578983; conditions: 24 h incubation; cited from earlier work
A2780 cells [15] = assay: cell cycle analysis by flow cytometry; type: cell-based, human; conditions: A2780, 15 µM, 24 h; untreated control 21.4 ± 0.8%
Description: Human ovarian cancer cell line A2780 (Sigma, Darmstadt, Germany) were used for this study. Cells were cultivated at 37 °C under a 5% CO2 atmosphere in an RPMI 1640 medium (Sigma Aldrich, Darmstadt, Germany) supplemented with (the final concentrations in medium): L-glutamine (2 mM), fetal bovine serum (FBS, 10%) and PenStrep (5 U penicillin, 50 µg streptomycin/mL).
After 24 h, the cells were washed once with PBS (0.1 M, pH 7.4) and cell cycle analysis was performed according to the protocol of BD Cycletest^TM Plus DNA kit (Becton Dickinson, Franklin Lakes, NJ, USA). Measurements were performed using BD FACSVerse flow cytometer (Becton Dickinson, Franklin Lakes, NJ, USA) in 3 independent experiments, each done in duplicate, while at least 5 × 10^3 events were recorded for each sample.

A2780 cells [16] = assay: Annexin V/propidium iodide cell death assay, flow cytometry; type: cell-based, human; conditions: A2780, 15 µM, 24 h; mean of three experiments
Description: Both methods were performed according to the manufacturers’ protocols with 1 modification in the caspase induction assay, which was the use of the CellEvent^TM Caspase-3/7 Green Detection Reagent only for detection of Caspase-3/7 activation. […] After 24 h, the cells were washed once with PBS (0.1 M, pH 7.4), detached with trypsin (0.25% in ethylenediaminetetraacetic acid (EDTA), Sigma-Aldrich), resuspended in 500 µL of the culture medium and divided into 2 separate tubes, the first for apoptosis assay and the second one for caspase activation analysis. After staining with appropriate dyes, samples were analyzed on a BD FACSVerse flow cytometer (Becton Dickinson, Franklin Lakes, NJ, USA) in 3 separate experiments, while at least 10^4 events were recorded for each sample prepared in duplicate.

[17] = tested on: 518A2, Panc-1, MCF-7/Topo, KB-V1/Vbl, DLD-1, U-87 MG cancer cell lines; parameters: method as in PMID 27936296; conditions: range over cell lines; read-out: IC50 values on the mentioned cancer cell lines; cited from earlier work

SMILES	IC50 [1] [µM]	IC50 [2] [µM]	IC50 [3] [µM]	IC50 [4] [µM]	IC50 [5] [µM]	IC50 (osteosarcoma (HOS)) [µM]	IC50 [6] [µM]	IC50 [7] [µM]	IC50 [8] [µM]	inhibition of LPS-stimulated NF-κB/AP-1 activation [9]	ROS production, long term (THP-1 cells)	proteolytically activated Casp-3 (verified by cleaved PARP-1) [10]	IC50 [14] [µM]	IC50 (A2780 cell line) [µM]	further results
CC(C)=CCc1c2c(c3occ(-c4ccc(O)c(O)c4)c(=O)c3c1[O-])C=CC(C)(C)O2.CO.CO.O=[N+]([O-])[O-].[Cu+2].c1ccc(-c2ccccn2)nc1 [Complex 1, (3-(3,4-dihydroxyphenyl)-8,8-dimethyl-6-(3-methylbut-2-en-1-yl)-4H,8H-benzo[1,2-b:3,4-b′]dipyran-4-one-5-olato-κ^2O4:O5)(2,2′-bipyridine–κ^2N:N)copper(II) nitrate methanol disolvate]	23.8 ± 0.2	5.6 ± 0.3	20.8 ± 1.5	12.1 ± 1.5	22.1 ± 1.9	21.5 ± 1.4	13.7 ± 7.4	4 ± 1.1	> 100	able to inhibit	elevated the ROS levels similarly as pyocyanin				plasmid DNA nicked to OC-form (pUC19 plasmid DNA; 10 µM, water-containing medium (10% DMF), 37 °C, 1 h): ca. 30%; DNA cleavage in the presence of ROS scavengers (KI, NaN3, DMSO) (pUC19 plasmid DNA; 0.66 mM H2O2, scavengers equimolar to complex): decreased by DMSO
CC(C)=CCc1c2c(c3occ(-c4ccc(O)c(O)c4)c(=O)c3c1[O-])C=CC(C)(C)O2.CO.CO.O=[N+]([O-])[O-].[Cu+2].c1cnc2c(c1)ccc1cccnc12 [Complex 3, (3-(3,4-dihydroxyphenyl)-8,8-dimethyl-6-(3-methylbut-2-en-1-yl)-4H,8H-benzo[1,2-b:3,4-b′]dipyran-4-one-5-olato-κ^2O4:O5)(1,10-phenanthroline–κ^2N:N)copper(II) nitrate methanol disolvate]	5.9 ± 0.6	2.9 ± 1.2	3.5 ± 0.2	5.8 ± 2.2	13 ± 1.4	3.5 ± 0.1	4.2 ± 1.9	> 10	> 100	no influence on the activity	highest pro-oxidant potential of all the complexes	detected			levels of pro-caspase 3 (pro-Casp-3) [10]: dramatically decreased
O=c1c(-c2ccc(O)cc2)coc2cc(O)cc([O-])c12.O=c1c(-c2ccc(O)cc2)coc2cc(O)cc([O-])c12.[Cu+2] [[Cu(L)2], bis[3-(4-hydroxyphenyl)-7-hydroxy-4H-benzopyran-4-one-5-olato-κO^2] copper(II)]													20.1 ± 0.7		IC50 (518A2 melanoma cells): 10.9 ± 1.4 µM; IC50 [11]: 16.9 ± 0.8 µM; IC50 [12]: 15 ± 1.5 µM; IC50 [13]: 8 ± 0.2 µM; IC50 (DLD-1 colon carcinoma): 21.2 ± 1.8 µM; IC50 (U-87 MG glioblastoma): 30.2 ± 5 µM
c1ccc(-c2ccccn2)nc1 [bipy, 2,2′-bipyridine]														> 100	
N.N.[Cl][Pt][Cl] [cisplatin, reference compound]	30.8 ± 1.8	> 80	> 80	26.3 ± 2.1	> 80	30 ± 5.9			> 80			detected	17.3 ± 1.9		cells in the S phase of the cell cycle (A2780 cells [15]): 51.4 ± 2.2%; Annexin V +/PI + cells (late apoptotic/secondary necrotic) (A2780 cells [16]): 23.7 ± 2.0%; Annexin V +/PI − cells (early apoptotic) (A2780 cells [16]): 41.5 ± 0.8%; IC50 [17]: 4 to 32.6 µM
c1cnc2c(c1)ccc1cccnc12 [phen, 1,10-phenanthroline]														> 100	
